Test results from article PMC9578392, “Safety, Tolerability, and Pharmacokinetics of the Novel Antiviral Agent Ensitrelvir Fumaric Acid, a SARS-CoV-2 3CL Protease Inhibitor, in Healthy Adults” (Antimicrobial Agents and Chemotherapy, 2022).
Where two headings read alike, the source gives them in different places.

How the values were obtained:
SARS-CoV-2 = system: SARS-CoV-2; set-up: method as in PMID 35352927; settings: BALB/cAJcl mice; cited from earlier work
[1] = Single ascending oral dose pharmacokinetics (part 1, plasma and urine, fasted); format: in vivo, human; settings: for Feu0-144: urine; for AUC(0-inf) / AUC(0-t) / Cmax / MRT / Vd/F / half-life / Tmax / CL renal: human, oral; for AUC(0-inf) / AUC(0-t) / Cmax / MRT / Vd/F / half-life / Tmax: plasma; for Vd/F: read-out: Vz/F; for CL renal: urine and plasma
CYP3A = assay: Drug-drug interaction with midazolam (cohort G); settings: ensitrelvir 750/250 mg, from increase in AUC0-inf of midazolam
[2] = cohort/dose A/20 mg, single dose, geometric mean (%CV)
[3] = cohort/dose B/70 mg, single dose, geometric mean (%CV)
[4] = cohort/dose C/250 mg, single dose, geometric mean (%CV)
[5] = cohort/dose D/500 mg, single dose, geometric mean (%CV)
[6] = cohort/dose E/1000 mg, single dose, geometric mean (%CV)
[7] = cohort/dose J/2000 mg, single dose, geometric mean (%CV)

Cn1cnc(Cn2c(=O)[nH]/c(=N\c3cc4cn(C)nc4cc3Cl)n(Cc3cc(F)c(F)cc3F)c2=O)n1 [Ensitrelvir, ensitrelvir fumaric acid]
antiviral activity in mice (SARS-CoV-2): dose-dependent antiviral activity
CL/F [1, 2]: 0.219 (24.3) L/h
Feu0-144 [1, 2]: 12.9 (14.6) %
CL/F [1, 3]: 0.241 (15.7) L/h
Feu0-144 [1, 3]: 14.7 (27.4) %
CL/F [1, 4]: 0.274 (16.2) L/h
Feu0-144 [1, 4]: 16.0 (16.6) %
CL/F [1, 5]: 0.252 (16.1) L/h
Feu0-144 [1, 5]: 21.8 (15.4) %
CL/F [1, 6]: 0.297 (35.5) L/h
Feu0-144 [1, 6]: 19.4 (29.5) %
CL/F [1, 7]: 0.315 (22.2) L/h
AUC(0-inf) [1, 2]: 91.4 µg·h/mL
AUC(0-t) [1, 2]: 82 µg·h/mL
Cmax [1, 2]: 1700 ng/mL
MRT [1, 2]: 61.8 h
Vd/F [1, 2]: 13.5 L
half-life ([1]; cohort/dose A/20 mg, single dose, geometric mean (%CV), read-out: t1/2,z (converted)): 42.6 h
Tmax ([1]; cohort/dose A/20 mg, single dose, median (min, max), read-out: Tmax): 2.5 h
AUC(0-inf) [1, 3]: 291 µg·h/mL
AUC(0-t) [1, 3]: 289 µg·h/mL
Cmax [1, 3]: 5200 ng/mL
MRT [1, 3]: 67.3 h
Vd/F [1, 3]: 15.9 L
half-life ([1]; cohort/dose B/70 mg, single dose, geometric mean (%CV), read-out: t1/2,z (converted)): 45.7 h
Tmax ([1]; cohort/dose B/70 mg, single dose, median (min, max), read-out: Tmax): 1.5 h
AUC(0-inf) [1, 4]: 914 µg·h/mL
AUC(0-t) [1, 4]: 907 µg·h/mL
Cmax [1, 4]: 15200 ng/mL
MRT [1, 4]: 73.4 h
Vd/F [1, 4]: 17 L
half-life ([1]; cohort/dose C/250 mg, single dose, geometric mean (%CV), read-out: t1/2,z (converted)): 43.1 h
Tmax ([1]; cohort/dose C/250 mg, single dose, median (min, max), read-out: Tmax): 2.5 h
AUC(0-inf) [1, 5]: 1990 µg·h/mL
AUC(0-t) [1, 5]: 1980 µg·h/mL
Cmax [1, 5]: 32600 ng/mL
MRT [1, 5]: 68.2 h
Vd/F [1, 5]: 15.3 L
half-life ([1]; cohort/dose D/500 mg, single dose, geometric mean (%CV), read-out: t1/2,z (converted)): 42.2 h
Tmax ([1]; cohort/dose D/500 mg, single dose, median (min, max), read-out: Tmax): 2 h
AUC(0-inf) [1, 6]: 3370 µg·h/mL
AUC(0-t) [1, 6]: 3340 µg·h/mL
Cmax [1, 6]: 63800 ng/mL
MRT [1, 6]: 70.3 h
Vd/F [1, 6]: 20.6 L
half-life ([1]; cohort/dose E/1000 mg, single dose, geometric mean (%CV), read-out: t1/2,z (converted)): 48.1 h
Tmax ([1]; cohort/dose E/1000 mg, single dose, median (min, max), read-out: Tmax): 2.75 h
AUC(0-inf) [1, 7]: 6350 µg·h/mL
AUC(0-t) [1, 7]: 6310 µg·h/mL
Cmax [1, 7]: 96900 ng/mL
MRT [1, 7]: 67.4 h
Vd/F [1, 7]: 19.6 L
half-life ([1]; cohort/dose J/2000 mg, single dose, geometric mean (%CV), read-out: t1/2,z (converted)): 43.1 h
Tmax ([1]; cohort/dose J/2000 mg, single dose, median (min, max), read-out: Tmax): 4 h
half-life ([1]; single dose 20 to 2,000 mg, range across dose groups, read-out: geometric mean terminal elimination half-life (t1/2,z)): 42.2 to 48.1 h
Tmax ([1]; single dose 20 to 2,000 mg, range across dose groups, read-out: median time to maximum plasma concentration (Tmax)): 1.5 to 4 h
CL renal [1, 2]: 0.523 mL/min
CL renal [1, 3]: 0.668 mL/min
CL renal [1, 4]: 0.845 mL/min
CL renal [1, 5]: 1.04 mL/min
CL renal [1, 6]: 1.11 mL/min
CYP3A inhibition classification (CYP3A): strong CYP3A inhibitor
